The IC50 is the concentration needed to halve the response being measured. The low end stands for higher potency, the high end for lower potency. For orientation: inhibition means the share of the control response that was lost under treatment.

Data on 14 compounds can be found in article PMC11767309 (Molecules, 2025).

In series [1] the target is T1, butyrylcholinesterase (BChE) (Equus caballus, UniProt P81908).
T1 construct: butyrylcholinesterase (BChE, E.C. from equine serum); purchased Sigma Aldrich (St. Louis, MO, USA); host or cells: equine serum
Put plainly: biochemical. As to conditions: for IC50: BChE IC50 (μM). Also noted: species or system equine.

Series [2] can be described thus: Complex formation with Fe^3+, spectrophotometric titration. Format: physicochemical. The note with it: for Molar absorptivities at the longer-wavelength band maxima, ε: free ligand; for absorbance vs. ligand concentration plot: titration at constant Fe(III) content; for absorptivity of the complex higher than that of the ligand / molar absorptivity of the complex formed: complex with Fe^3+; for molar absorptivity of the complex formed: slope of absorbance vs. ligand concentration plot. How it is done:
For this purpose, the following compounds were selected: 1, 3, 6 and 7. The Fe^3+ ions strongly hydrolyze, decreasing the pH of the aqueous system; thus, acidic solutions were used to study the possible complex formation via spectrophotometric titrations.
The absorption spectra used to determine the molar absorptivity and to evaluate the complex formation constant were recorded with a Specord S600 spectrophotometer (Analytic Jena GmbH, Jena, Germany) in the 190–900 nm wavelength range. During the titration, the ligand concentration was increased at a constant Fe(III) content.

For series [3], the target named is T2, acetylcholinesterase (AChE) (Electrophorus electricus, UniProt O42275).
T2 construct: purchased Sigma Aldrich (St. Louis, MO, USA)
Put plainly: biochemical. Also noted: species or system electric eel. As to conditions: read-out: AChE Inhibition (%).

The test system of another series is BChE. The note with it: selectivity BChE over AChE; cited from earlier work.

T1 sequence (P81908 whole entry): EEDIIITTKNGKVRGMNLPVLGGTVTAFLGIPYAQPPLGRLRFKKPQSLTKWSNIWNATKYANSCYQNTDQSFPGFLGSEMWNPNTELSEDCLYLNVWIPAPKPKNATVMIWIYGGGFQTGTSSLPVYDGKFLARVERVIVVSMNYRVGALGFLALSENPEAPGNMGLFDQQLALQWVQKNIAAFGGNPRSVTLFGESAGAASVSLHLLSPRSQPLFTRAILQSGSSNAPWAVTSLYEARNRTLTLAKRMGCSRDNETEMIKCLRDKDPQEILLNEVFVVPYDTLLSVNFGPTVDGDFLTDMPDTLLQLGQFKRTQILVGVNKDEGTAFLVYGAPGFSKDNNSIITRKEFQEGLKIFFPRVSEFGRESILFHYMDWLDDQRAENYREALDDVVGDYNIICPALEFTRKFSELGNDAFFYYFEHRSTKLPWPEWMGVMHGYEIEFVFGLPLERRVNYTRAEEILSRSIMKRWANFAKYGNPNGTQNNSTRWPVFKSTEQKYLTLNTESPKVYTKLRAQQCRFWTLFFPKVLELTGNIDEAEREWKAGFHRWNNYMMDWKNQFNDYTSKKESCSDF
T2 sequence (O42275 24-633): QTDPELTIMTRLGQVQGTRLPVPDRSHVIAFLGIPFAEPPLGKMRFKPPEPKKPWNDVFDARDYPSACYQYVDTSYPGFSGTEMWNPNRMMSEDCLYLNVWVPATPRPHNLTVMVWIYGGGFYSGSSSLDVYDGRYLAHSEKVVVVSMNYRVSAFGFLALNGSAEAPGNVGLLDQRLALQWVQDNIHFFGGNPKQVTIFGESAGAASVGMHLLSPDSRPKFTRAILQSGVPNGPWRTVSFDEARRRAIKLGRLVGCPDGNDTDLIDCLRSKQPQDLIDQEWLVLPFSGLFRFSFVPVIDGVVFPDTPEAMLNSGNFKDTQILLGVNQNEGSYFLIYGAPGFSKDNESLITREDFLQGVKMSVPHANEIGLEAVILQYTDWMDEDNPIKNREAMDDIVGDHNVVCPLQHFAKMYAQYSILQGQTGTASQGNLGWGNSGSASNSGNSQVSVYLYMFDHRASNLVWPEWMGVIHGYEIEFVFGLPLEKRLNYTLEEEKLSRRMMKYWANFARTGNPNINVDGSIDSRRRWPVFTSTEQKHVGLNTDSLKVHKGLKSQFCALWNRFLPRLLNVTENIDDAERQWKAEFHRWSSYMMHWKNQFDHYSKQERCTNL

With `CN(C)C(=O)Oc1ccccc1/C=C/c1cccs1` [Compound 1, (E)-2-(2-(thiophen-2-yl)vinyl)phenyl dimethylcarbamate], the IC50 in series [1] was 0.12 ± 0.09 µM. Moreover, the inhibition at 50 µM in series [1] (read-out: BChE Inhibition (%)) is 85%. Besides, in series [2], the “Molar absorptivities at the longer-wavelength band maxima, ε” value (shortened to “Molar absorptivities”) is given as 22,570 M^–1cm^–1 and the “absorbance vs. ligand concentration plot” value was “no deviation from the straight line”. In addition, the inhibition at 100 µM in series [3] turned out to be 30%.

For `Cc1ccc(OC(=O)N(C)C)c(/C=C/c2cccs2)c1` [Compound 2, (E)-4-methyl-2-(2-(thiophen-2-yl)vinyl)phenyl dimethylcarbamate], the IC50 in series [1] was determined as 1.05 ± 0.09 µM. In addition, in series [1] (read-out: BChE Inhibition (%)), the inhibition at 10 µM stood at 85%. The inhibition at 100 µM in series [3] was 16.7%.

In series [1], `CN(C)C(=O)Oc1ccc(F)cc1/C=C/c1cccs1` [Compound 3, (E)-4-fluoro-2-(2-(thiophen-2-yl)vinyl)phenyl dimethylcarbamate] had an IC50 of 1.48 ± 0.36 µM. The inhibition at 100 µM in series [1] (read-out: BChE Inhibition (%)) came to 85%. In series [2], the “absorptivity of the complex higher than that of the ligand” value was “about 26%”; the “molar absorptivity of the complex formed” value is given as 13,200 M^−1 cm^−1; the “Molar absorptivities” value is reported as 10,440 M^–1cm^–1. Also, the inhibition at 100 µM in series [3] came out at 12.6%.

Take `CN(C)C(=O)Oc1ccc(Cl)cc1/C=C/c1cccs1` [Compound 4, (E)-4-chloro-2-(2-(thiophen-2-yl)vinyl)phenyl dimethylcarbamate]: the IC50 in series [1] came to 2.83 ± 0.03 µM. Besides, the inhibition at 25 µM in series [1] (read-out: BChE Inhibition (%)) came to 85.3%. Further, the inhibition at 100 µM in series [3] was 35%.

Consider `COc1ccc(OC(=O)N(C)C)c(/C=C/c2cccs2)c1` [Compound 5, (E)-4-methoxy-2-(2-(thiophen-2-yl)vinyl)phenyl dimethylcarbamate], for which, in series [1], 11.6 ± 0.18 µM corresponded to half-maximal inhibition (IC50). The inhibition at 100 µM in series [1] (read-out: BChE Inhibition (%)) worked out at 84%; in series [3], 11%.

`COc1ccc(/C=C/c2cccs2)c(OC(=O)N(C)C)c1` [Compound 6, (E)-5-methoxy-2-(2-(thiophen-2-yl)vinyl)phenyl dimethylcarbamate] had a half-maximal inhibitory concentration (IC50) in series [1] of 0.9 ± 0.14 µM. Also, the inhibition at 25 µM in series [1] (read-out: BChE Inhibition (%)) was determined as 84.4%. In addition, in series [2], the “absorptivity of the complex higher than that of the ligand” value is “ca. 64%”; the “molar absorptivity of the complex formed” value was “about 26,700 M^−1 cm^−1”; the “Molar absorptivities” value is 16,330 M^–1cm^–1. For the same compound, the inhibition at 100 µM in series [3] came to 1%.

`Cc1ccc(/C=C/c2ccccc2OC(=O)N(C)C)s1` [Compound 7, (E)-2-(2-(5-methylthiophen-2-yl)vinyl)phenyl dimethylcarbamate]: the IC50 in series [1] was determined as 0.38 ± 0.01 µM. For the same compound, the inhibition at 25 µM in series [1] (read-out: BChE Inhibition (%)) came to 86.3%. For the same compound, in series [2], the “Molar absorptivities” value is on record as 19,410 M^–1cm^–1 and the “absorbance vs. ligand concentration plot” value is “no deviation from the straight line”. In addition, the inhibition at 100 µM in series [3] was 17.7%.

Compound `Cc1ccc(OC(=O)N(C)C)c(/C=C/c2ccc(C)s2)c1` [Compound 8, (E)-4-methyl-2-(2-(5-methylthiophen-2-yl)vinyl)phenyl dimethylcarbamate] returned a half-inhibitory concentration (IC50) in series [1] of 25.5 ± 0.21 µM. Further, the values for the inhibition at 100 µM in series [1] (read-out: BChE Inhibition (%)) and in series [3] were 72.5% and 25.2%, respectively.

For `Cc1ccc(/C=C/c2cc(F)ccc2OC(=O)N(C)C)s1` [Compound 9, (E)-4-fluoro-2-(2-(5-methylthiophen-2-yl)vinyl)phenyl dimethylcarbamate], in series [1], the half-inhibitory concentration (IC50) is 15 ± 2.32 µM. For the same compound, the figures for the inhibition at 100 µM in series [1] (read-out: BChE Inhibition (%)) and in series [3] were 85.2% and 23.6%, respectively.

Consider `Cc1ccc(/C=C/c2cc(Cl)ccc2OC(=O)N(C)C)s1` [Compound 10, (E)-4-chloro-2-(2-(5-methylthiophen-2-yl)vinyl)phenyl dimethylcarbamate], for which, in series [1], it took 23.2 ± 3.78 µM to reach half-maximal inhibition (IC50). In addition, the values for the inhibition at 100 µM in series [1] (read-out: BChE Inhibition (%)) and in series [3] were 85.7% and 27%, respectively.

In series [1], `CN(C)C(=O)Oc1cccc(/C=C/c2cccs2)c1` [Compound 11, (E)-3-(2-(thiophen-2-yl)vinyl)phenyl dimethylcarbamate] gave an IC50 of 11.4 ± 2.48 µM. For the same compound, the results for the inhibition at 100 µM in series [1] (read-out: BChE Inhibition (%)) and in series [3] were 83.4% and 19%, respectively.

In series [1], `Cc1cnc(/C=C/c2cc(F)ccc2OC(=O)N(C)C)s1` [Compound 12, (E)-4-fluoro-2-(2-(5-methylthiazol-2-yl)vinyl)phenyl dimethylcarbamate] showed a half-maximal inhibitory concentration (IC50) of 23.4 ± 2.43 µM. Further, the inhibition at 100 µM was 81.4% in series [1] (read-out: BChE Inhibition (%)) and 23.9% in series [3].

`Cc1cnc(/C=C/c2cc(Cl)ccc2OC(=O)N(C)C)s1` [Compound 13, (E)-4-chloro-2-(2-(5-methylthiazol-2-yl)vinyl)phenyl dimethylcarbamate] gave an IC50 in series [1] of 3.77 ± 0.13 µM. Also, the inhibition at 50 µM in series [1] (read-out: BChE Inhibition (%)) turned out to be 84.1%. For the same compound, the inhibition at 100 µM in series [3] is 37.5%.

Consider cymserine, for which, in the series on BChE, the “more effective as a BChE inhibitor compared to AChE” value is recorded as 15 times.
